The series is described as follows: Solubility at room temperature. Type of series: physicochemical.

The structures appear in SMILES notation.

`C=C1[C@H](CO)[C@@H](O)C[C@@H]1n1cnc2c(=O)[nH]c(N)nc21` [crystalline form of entecavir]: the “Solubility in N,N-dimethylformamide” value (N. N-dimethylformamide) is “sparingly soluble”. For the same compound, the “Solubility in dimethyl sulfoxide” value (dimethyl sulfoxide) is recorded as “soluble”. Besides, for the setting “ethanol”, the Solubility in ethanol result is on record as “slightly soluble”. Also, where the note is “water”, the Solubility in water entry is given as “insoluble”.
